Laboratory results published in patent US9789111B2, “Casein kinase 1δ (CK 1δ) inhibitors” (Electrophoretics Limited, priority 2010, dated 2017).
Blank lines part the entries; values can stand above or below the compound they belong to.

Legend:
[1] = system: total Tau in SH-SY5Y-TMHT cells; test: Western Blot of total Tau; type: cell-based, human; details: 5 μM
Protocol: (§1) SH-SY5Y-TMHT cells are kept in culture medium (DMEM medium, 10% FCS, 1% NEAA, 1% L-Glutamine, 100 μg/ml Gentamycin, 300 μg/ml Geneticin G-418) for 2 days until 80-90% confluency. Cells are then differentiated in culture medium supplemented with 10 μM retinoic acid (RA) for 7 days changing medium every 2 to 3 days. Differentiated cells are seeded onto 6-well plates and 96-well plates at a cell density of 1.25×10^6 and 8×10^5 cells per well, respectively. On day 8 post-differentiation, the test compounds, reference compounds and vehicle control were added to the culture medium. After 6 h of compound exposure one plate of cells is subjected to a MTT assay to evaluate the effect of test and reference items on cell viability. Remaining wells are washed once with cold PBS and harvested in 300 μl RIPA-Buffer [50 mM Tris pH 7.4, 1% Nonident P40, 0.25% Na-deoxy-cholate, 150 mM NaCl, 1 mM EDTA, 1 μM NaF, 1 μM Na-ortho-vanadate, 80 mM Glycerophosphate, supplemented with freshly added protease (Calbiochem) and phosphatase (Sigma) inhibitor cocktail]. The cell suspension is transferred into a 1.5 ml tube and additionally lysed by sonication on ice. An aliquot of 20 μl is taken for the determination of the protein concentration (BCA assay). Subsequently, the lysates are snap frozen and stored at −80° C. until shipment.
(§2) Lysates of treated cells were prepared in Laemmli buffer and 10 μg loaded into each lane of a 10% Nu-PAGE gel (Invitrogen, UK). Samples were run until the coomassie blue dye fromt was within 1 cm of the bottom of the gel. The separated proteins were transferred onto nitrocellulose and blots developed using antibodies specific for total tau (Polyclonal Rabbit Anti-Human Tau, Dako, UK (cat # A0024)) and phopho-Threonine 231 (Tau (Phospho-Thr231) Antibody, Signalway Antibody, USA (cat # 11110)) respectively. In each case the bound antibody was detected using ECL Rabbit IgG, HRP-Linked (from donkey) (GE Healthcare, UK (cat # NA934))

[2] = system: Tau phosphorylated at Threonine 231 in SH-SY5Y-TMHT cells; test: Western Blot of Tau phosphorylated at Threonine 231; type: cell-based, human; details: 5 μM, Western Blot
Protocol: as §1, §2

SH-SY5Y-TMHT cells = test: Cell viability, MTT assay; type: cell-based, human; details: 0.5 μM (tested 0.1 μM to 1 μM), 6 h of treatment
Protocol: as §1
To determine compound activity, it is necessary to control for potential cell toxicity of all molecules. Viability of cultures is determined by the MTT assay. This assay allows the measurement of the mitochondrial dehydrogenase activity which reduces yellow MTT to dark blue formazan crystals. Since this reaction is catalyzed in living cells only this assay is used for the determination of cell viability. MTT solution is added to each well in a final concentration of 0.5 mg/ml. After 2 hours, the MTT containing medium is aspired. Cells are lysed in 3% SDS and the formazan crystals are dissolved in isopropanol/HCl. Optical density is measured with a plate-reader at wavelength 570 nm. Cell survival rate is expressed as optical density (OD). Values are calculated as percent of control values.
Cell viability was determined in differentiated SH-SY5Y-TMHT cells by the MTT assay. Test and reference compounds were applied in a concentration range from 0.05 μM to 10 μM and from 0.1 μM to 1 μM, respectively. Upon 6 h of treatment, cell viability was evaluated. […] Statistical significance is indicated by *<0.05, **<0.01, ***<0.001 as determined by One-Way ANOVA. Data are shown from two independent experiments as group mean+/−SEM (n=8). […] Statistical significance is indicated by *<0.05, **<0.01, ***<0.001 as determined by One-Way ANOVA. […] Statistical significance is indicated by *<0.05, **<0.01, ***<0.001 as determined by One-Way ANOVA. […]

[3] = system: Tau phosphorylation at key pathogenic sites in SH-SY5Y-TMHT cells; details: SH-SY5Y-TMHT cells exposed to kinase inhibitors; cited from earlier work
CLK2 = CLK2 (Homo sapiens, UniProt P49760); test: kinase inhibition assay panel; type: biochemical
Chain of CLK2 (P49760 whole entry, species assumed): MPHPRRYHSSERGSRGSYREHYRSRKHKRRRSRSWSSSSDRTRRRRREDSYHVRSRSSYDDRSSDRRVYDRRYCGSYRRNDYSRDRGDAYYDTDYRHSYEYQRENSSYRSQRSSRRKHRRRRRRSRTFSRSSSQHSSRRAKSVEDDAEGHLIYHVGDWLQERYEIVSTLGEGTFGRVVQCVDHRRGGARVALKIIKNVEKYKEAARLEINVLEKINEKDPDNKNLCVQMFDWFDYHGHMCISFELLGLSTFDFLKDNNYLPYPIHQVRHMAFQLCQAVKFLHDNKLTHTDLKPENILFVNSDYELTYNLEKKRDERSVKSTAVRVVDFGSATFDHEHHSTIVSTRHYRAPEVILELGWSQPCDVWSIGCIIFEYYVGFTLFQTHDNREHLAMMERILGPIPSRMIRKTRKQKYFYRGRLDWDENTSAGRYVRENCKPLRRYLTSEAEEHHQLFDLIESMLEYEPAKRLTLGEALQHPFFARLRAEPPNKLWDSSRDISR

PKCa = PKCa (Homo sapiens, UniProt P17252); test: kinase inhibition assay panel; type: biochemical
Protocol: (§3) Base Reaction buffer; 20 mM Hepes (pH 7.5), 10 mM MgCl2, 1 mM EGTA, 0.02% Brij35, 0.02 mg/ml BSA, 0.1 mM Na3VO4, 2 mM DTT, 1% DMSO
(§4) It should be noted that required cofactors are added individually to each kinase reaction.
(§5) • 1. Prepare indicated substrate in freshly prepared Base Reaction Buffer as described above • 2. Deliver any required cofactors to the substrate solution • 3. Deliver indicated kinase into the substrate solution and gently mix • 4. Deliver compounds in DMSO into the kinase reaction mixture • 5. Deliver ^33P-ATP (specific activity 0.01 μCi/μl final) into the reaction mixture to initiate the reaction • 6. Incubate kinase reaction for 120 min. at room temperature • 7. Reactions are spotted onto P81 ion exchange paper (Whatman #3698-915) • 8. Wash filters extensively in 0.75% Phosphoric acid Kinase Information: • CK1δ—Genbank Accession # NP_620693 • Recombinant human full-length construct. GST-tagged, expressed in insect cells. • Final concentration in assay=4 nM • Substrate: CK1tide • Substrate sequence: [KRRRAL[pS]VASLPGL] • Final substrate concentration in assay=20 μM • It should be noted that no additional cofactors are added to the reaction mixture.

MSK1/RPS6KA5 = MSK1/RPS6KA5 (Homo sapiens, UniProt O75582); test: kinase inhibition assay panel; type: biochemical
Protocol: as §3, §4, §5

KDR/VEGFR2 = KDR/VEGFR2 (Homo sapiens, UniProt P35968); test: kinase inhibition assay panel; type: biochemical
Chain of KDR/VEGFR2 (P35968 20-1356): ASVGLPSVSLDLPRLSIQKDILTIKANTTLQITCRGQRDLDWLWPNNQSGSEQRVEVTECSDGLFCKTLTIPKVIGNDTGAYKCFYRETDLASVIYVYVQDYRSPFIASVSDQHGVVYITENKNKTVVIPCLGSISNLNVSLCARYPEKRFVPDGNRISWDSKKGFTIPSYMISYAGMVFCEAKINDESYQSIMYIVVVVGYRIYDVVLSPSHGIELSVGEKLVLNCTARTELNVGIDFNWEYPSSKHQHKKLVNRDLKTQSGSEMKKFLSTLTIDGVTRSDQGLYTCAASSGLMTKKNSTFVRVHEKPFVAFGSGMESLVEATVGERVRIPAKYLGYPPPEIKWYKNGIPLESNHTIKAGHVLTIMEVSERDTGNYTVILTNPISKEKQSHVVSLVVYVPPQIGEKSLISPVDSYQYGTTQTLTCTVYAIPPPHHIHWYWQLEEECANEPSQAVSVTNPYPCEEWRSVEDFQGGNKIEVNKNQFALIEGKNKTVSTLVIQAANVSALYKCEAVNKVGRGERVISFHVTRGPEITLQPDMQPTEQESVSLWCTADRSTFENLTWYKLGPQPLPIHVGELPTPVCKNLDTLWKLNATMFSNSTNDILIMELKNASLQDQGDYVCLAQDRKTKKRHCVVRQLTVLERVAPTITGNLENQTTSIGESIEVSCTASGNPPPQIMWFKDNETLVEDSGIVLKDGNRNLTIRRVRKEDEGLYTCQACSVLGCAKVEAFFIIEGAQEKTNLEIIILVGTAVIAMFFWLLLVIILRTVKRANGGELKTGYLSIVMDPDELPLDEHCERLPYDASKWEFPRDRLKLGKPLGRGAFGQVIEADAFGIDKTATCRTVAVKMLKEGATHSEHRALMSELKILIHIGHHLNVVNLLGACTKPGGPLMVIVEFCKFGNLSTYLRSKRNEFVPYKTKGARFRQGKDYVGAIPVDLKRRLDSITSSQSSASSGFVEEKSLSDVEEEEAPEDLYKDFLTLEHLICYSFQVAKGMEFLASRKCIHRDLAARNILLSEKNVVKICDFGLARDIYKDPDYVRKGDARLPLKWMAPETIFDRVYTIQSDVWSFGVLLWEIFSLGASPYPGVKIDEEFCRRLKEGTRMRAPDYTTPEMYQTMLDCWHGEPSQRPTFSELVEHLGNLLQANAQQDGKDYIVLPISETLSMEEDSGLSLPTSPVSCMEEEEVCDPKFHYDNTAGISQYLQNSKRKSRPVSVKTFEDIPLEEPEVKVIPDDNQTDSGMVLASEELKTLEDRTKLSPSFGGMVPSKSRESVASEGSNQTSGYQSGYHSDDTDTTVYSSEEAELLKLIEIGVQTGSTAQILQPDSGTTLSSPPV
Protocol: as §3, §4, §5

c-SRC = c-SRC (Homo sapiens, UniProt P12931); test: kinase inhibition assay panel; type: biochemical
Protocol: as §3, §4, §5

CDK5/p25 = CDK5/p25 (Homo sapiens, UniProt Q00535); test: kinase inhibition assay panel; type: biochemical
Protocol: as §3, §4, §5

GSK3b = GSK3b (Homo sapiens, UniProt P49841); test: kinase inhibition assay panel; type: biochemical
Protocol: as §3, §4, §5

ROCK1 = ROCK1 (Homo sapiens, UniProt Q13464); test: kinase inhibition assay panel; type: biochemical
Chain of ROCK1 (Q13464 whole entry, species assumed): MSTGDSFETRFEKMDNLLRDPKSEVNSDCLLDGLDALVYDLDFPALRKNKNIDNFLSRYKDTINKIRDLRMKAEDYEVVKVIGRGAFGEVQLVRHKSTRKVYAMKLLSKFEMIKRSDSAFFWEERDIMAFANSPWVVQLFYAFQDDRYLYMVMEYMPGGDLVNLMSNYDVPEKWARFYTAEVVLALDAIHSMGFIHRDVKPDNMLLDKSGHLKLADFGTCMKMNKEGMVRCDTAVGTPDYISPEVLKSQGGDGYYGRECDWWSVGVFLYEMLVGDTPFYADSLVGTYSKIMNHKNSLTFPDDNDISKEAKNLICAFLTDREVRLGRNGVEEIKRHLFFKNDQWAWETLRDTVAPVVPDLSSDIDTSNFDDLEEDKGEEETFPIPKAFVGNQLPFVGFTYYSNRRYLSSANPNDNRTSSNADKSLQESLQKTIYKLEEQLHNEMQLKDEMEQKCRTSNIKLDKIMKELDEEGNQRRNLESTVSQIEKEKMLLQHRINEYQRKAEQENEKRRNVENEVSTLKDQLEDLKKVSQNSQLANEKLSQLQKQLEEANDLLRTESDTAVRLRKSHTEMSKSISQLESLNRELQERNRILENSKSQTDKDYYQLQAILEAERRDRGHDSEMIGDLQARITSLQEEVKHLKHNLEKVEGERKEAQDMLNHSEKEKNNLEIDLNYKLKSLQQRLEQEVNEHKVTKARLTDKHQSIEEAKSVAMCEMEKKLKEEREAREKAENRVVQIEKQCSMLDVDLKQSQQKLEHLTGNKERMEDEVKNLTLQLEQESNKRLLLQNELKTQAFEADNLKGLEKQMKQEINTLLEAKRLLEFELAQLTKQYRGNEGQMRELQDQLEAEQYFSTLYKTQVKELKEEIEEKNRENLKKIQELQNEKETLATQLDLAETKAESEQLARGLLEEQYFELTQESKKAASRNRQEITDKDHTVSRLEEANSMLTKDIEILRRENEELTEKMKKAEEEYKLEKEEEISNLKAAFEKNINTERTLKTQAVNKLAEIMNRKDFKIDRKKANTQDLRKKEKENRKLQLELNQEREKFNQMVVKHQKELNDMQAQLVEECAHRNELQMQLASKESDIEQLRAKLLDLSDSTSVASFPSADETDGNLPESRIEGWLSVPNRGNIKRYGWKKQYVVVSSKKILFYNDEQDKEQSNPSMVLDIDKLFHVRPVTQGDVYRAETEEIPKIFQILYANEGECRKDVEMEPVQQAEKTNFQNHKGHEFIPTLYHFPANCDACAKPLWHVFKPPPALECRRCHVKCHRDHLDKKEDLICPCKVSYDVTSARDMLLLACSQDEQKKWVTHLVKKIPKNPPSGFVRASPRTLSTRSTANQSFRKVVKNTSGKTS
Protocol: as §3, §4, §5

PKCb2 = PKCb2 (Homo sapiens, UniProt P05771); test: kinase inhibition assay panel; type: biochemical
Protocol: as §3, §4, §5

ABL2/ARG = ABL2/ARG (Homo sapiens, UniProt P42684); test: kinase inhibition assay panel; type: biochemical
Chain of ABL2/ARG (P42684 whole entry): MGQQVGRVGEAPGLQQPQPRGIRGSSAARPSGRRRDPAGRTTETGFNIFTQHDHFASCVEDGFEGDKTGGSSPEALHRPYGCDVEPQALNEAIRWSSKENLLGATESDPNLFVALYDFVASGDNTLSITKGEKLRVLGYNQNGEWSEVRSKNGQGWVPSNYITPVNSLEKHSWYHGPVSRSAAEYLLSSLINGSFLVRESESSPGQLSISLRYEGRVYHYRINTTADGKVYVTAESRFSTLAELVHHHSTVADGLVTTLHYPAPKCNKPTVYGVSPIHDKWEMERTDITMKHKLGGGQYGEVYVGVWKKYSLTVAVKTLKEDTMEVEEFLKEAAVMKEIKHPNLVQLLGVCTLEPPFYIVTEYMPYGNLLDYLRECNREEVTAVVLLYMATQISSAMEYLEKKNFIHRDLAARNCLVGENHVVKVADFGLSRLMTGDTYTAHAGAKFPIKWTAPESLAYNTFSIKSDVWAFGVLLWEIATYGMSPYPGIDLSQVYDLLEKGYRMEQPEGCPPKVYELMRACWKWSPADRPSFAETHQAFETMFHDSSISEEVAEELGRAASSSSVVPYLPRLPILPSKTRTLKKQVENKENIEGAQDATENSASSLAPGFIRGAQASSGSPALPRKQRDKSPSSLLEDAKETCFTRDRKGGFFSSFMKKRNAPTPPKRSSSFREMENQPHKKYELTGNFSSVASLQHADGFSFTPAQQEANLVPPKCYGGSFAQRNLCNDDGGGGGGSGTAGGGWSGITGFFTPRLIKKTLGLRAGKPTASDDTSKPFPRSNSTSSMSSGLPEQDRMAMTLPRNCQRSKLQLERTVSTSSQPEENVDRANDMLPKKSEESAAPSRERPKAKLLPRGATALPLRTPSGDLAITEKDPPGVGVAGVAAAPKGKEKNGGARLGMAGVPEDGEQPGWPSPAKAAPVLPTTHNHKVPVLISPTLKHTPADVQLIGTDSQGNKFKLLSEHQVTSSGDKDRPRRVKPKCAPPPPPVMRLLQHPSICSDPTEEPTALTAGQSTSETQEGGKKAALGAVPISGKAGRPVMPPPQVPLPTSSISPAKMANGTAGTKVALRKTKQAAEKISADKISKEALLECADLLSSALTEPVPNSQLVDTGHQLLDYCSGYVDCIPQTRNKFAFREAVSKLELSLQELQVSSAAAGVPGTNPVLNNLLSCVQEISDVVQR
Protocol: as §3, §4, §5

PIM3 = PIM3 (Homo sapiens, UniProt Q86V86); test: kinase inhibition assay panel; type: biochemical
Protocol: as §3, §4, §5

PDK1/PDPK1 = target: T1, PDK1/PDPK1 (Homo sapiens, UniProt O15530); test: kinase inhibition assay panel; type: biochemical
T1 sequence (O15530 1-556): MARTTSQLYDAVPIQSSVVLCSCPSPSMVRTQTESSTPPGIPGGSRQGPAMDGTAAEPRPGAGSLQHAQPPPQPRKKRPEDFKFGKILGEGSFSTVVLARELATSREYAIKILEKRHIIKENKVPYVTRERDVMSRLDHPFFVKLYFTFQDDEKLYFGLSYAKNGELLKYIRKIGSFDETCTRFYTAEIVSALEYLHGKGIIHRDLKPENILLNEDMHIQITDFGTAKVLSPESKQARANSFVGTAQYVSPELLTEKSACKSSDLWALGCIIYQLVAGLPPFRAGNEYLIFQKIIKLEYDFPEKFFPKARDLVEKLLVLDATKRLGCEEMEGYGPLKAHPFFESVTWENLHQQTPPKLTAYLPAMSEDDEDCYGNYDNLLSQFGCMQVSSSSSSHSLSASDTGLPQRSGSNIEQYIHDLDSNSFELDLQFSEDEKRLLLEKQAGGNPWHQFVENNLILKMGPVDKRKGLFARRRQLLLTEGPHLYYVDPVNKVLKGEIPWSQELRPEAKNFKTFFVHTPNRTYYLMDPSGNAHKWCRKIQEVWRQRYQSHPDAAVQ
Protocol: as §3, §4, §5

LCK = LCK (Homo sapiens, UniProt P06239); test: kinase inhibition assay panel; type: biochemical
Protocol: as §3, §4, §5

HGK/MAP4K4 = HGK/MAP4K4 (Homo sapiens, UniProt O95819); test: kinase inhibition assay panel; type: biochemical
Protocol: as §3, §4, §5

CK1g1 = CK1g1 (Homo sapiens, UniProt Q9HCP0); test: kinase inhibition assay panel; type: biochemical
FGFR1 = FGFR1 (Homo sapiens, UniProt P11362); test: kinase inhibition assay panel; type: biochemical
CK1δ = target: T2, CK1δ (Homo sapiens, UniProt P48730); test: CK1δ inhibition assay (33P-ATP, CK1tide substrate); type: biochemical; details: range of kinase inhibition assays
T2 construct: Recombinant human full-length construct; GST; host or cells: insect cells
T2 sequence (P48730 1-409 isoform P48730-2): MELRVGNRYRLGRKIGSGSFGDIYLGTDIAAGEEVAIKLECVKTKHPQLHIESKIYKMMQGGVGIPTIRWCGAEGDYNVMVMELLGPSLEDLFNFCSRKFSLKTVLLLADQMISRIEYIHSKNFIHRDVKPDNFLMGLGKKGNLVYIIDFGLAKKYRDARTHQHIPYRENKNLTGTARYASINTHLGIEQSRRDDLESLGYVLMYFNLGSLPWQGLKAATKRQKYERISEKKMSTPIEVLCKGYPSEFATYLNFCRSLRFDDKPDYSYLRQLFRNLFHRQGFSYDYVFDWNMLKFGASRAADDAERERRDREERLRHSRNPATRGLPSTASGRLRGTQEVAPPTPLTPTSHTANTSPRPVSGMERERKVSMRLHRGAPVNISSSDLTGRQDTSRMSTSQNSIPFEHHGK
Protocol: The compounds of the invention may be tested for inhibition of casein kinase 1 delta (CK1δ) in accordance with the assay protocols described in US 2010/0152157, EP 1,636,375 or Hanger et al (2007) J. Biol. Chem. 282, 23645-23654. In particular, the assay was conducted in accordance with the following protocol:
as §3, §4, §5

CK1g2 = CK1g2 (Homo sapiens, UniProt P78368); test: kinase inhibition assay panel; type: biochemical

SMILES: Nc1nccc(-c2c(-c3ccc(F)cc3)ncn2C2CCCCC2)n1 [PF670462, reference compound]
detectable levels of total Tau [1]: marginally less total Tau | detectable level of pT231 in Tau protein [2]: reduced the detectable level of pT231 | effect on the cell viability of SH-SY5Y-TMHT cells (SH-SY5Y-TMHT cells): significant protective effect

SMILES: COc1cc(OC)c(C=C2C(O)=Nc3ccccc32)c(OC)c1 [IC261]
levels of Tau phosphorylation at key pathogenic sites [3]: reduced

inhibition of CLK2 (CLK2): lower than 40% | inhibition of PKCa (PKCa): lower than 40% | inhibition of MSK1/RPS6KA5 (MSK1/RPS6KA5): lower than 40% | inhibition of KDR/VEGFR2 (KDR/VEGFR2): lower than 40% | inhibition of c-SRC (c-SRC): lower than 40% | inhibition of CDK5/p25 (CDK5/p25): lower than 40% | inhibition of GSK3b (GSK3b): lower than 40% | inhibition of ROCK1 (ROCK1): lower than 40% | inhibition of PKCb2 (PKCb2): lower than 40% | inhibition of ABL2/ARG (ABL2/ARG): lower than 40% | inhibition of PIM3 (PIM3): lower than 40% | inhibition of PDK1/PDPK1 (PDK1/PDPK1): lower than 40% | inhibition of LCK (LCK): lower than 40% | inhibition of HGK/MAP4K4 (HGK/MAP4K4): lower than 40% | inhibition of CK1g1 (CK1g1): lower than 40% | inhibition of FGFR1 (FGFR1): lower than 40% | inhibition of CK1g2 (CK1g2): lower than 40%
SMILES: NC(=O)c1c(N)n(C(=O)c2ccc(F)cc2)c2ccccc12 [Compound 999, 2-amino-1-[(4-fluorophenyl)carbonyl]-1H-indole-3-carboxamide]
selectivity for CK1δ when compared with other kinases (CK1δ): significant and selective inhibition for CK1δ
